Test results as given in ChEMBL document CHEMBL3507680, “University of Dundee, Gates Library screen for HepG2 cell viability”.

Test: Human HepG2 cell viability assay in 384 well format
Assay type: toxicity, cell-based
Design: dose 125 nL, time 70.5 hour; cytotoxicity at 70.5 h: concentration not given beside the values
Conditions: HepG2 cells, read-out: Inhibition

SMILES | cytotoxicity at 70.5 h [%]
C[C@@H]1CN(Cc2nc(Cc3ccccc3F)no2)C[C@H](C)O1 | 32.5
Cn1ccc2c(ccn2CC(=O)Nc2ccc(Br)cc2)c1=O | 30.5
Cc1ccc(Oc2ncccc2C(=O)O)c(C)c1 | -4.94
CNC(=O)c1csc(-c2cccnc2)n1 | 2.96
Cc1c(NC(=O)C(C)N(C)C)c(=O)n(-c2ccccc2)n1C (centres undefined) | -1.07
Cc1ccc(Oc2ncccc2C(=O)N(C)CCCN(C)C)c(C)c1 | -5.42
Cc1ccc(Oc2ncccc2C(=O)N(C)CCCN(C)C)cc1 | 0.617
COc1ccc(C(=O)Nc2cccc(SC)c2)c(OC)n1 | 26.2
CC1CN(c2ncccc2C(=O)Nc2cccc3c2CCCC3)CCN1 (centres undefined) | -5.69
CCCNc1ccc(C(=O)NCCc2cccc(OC)c2)cn1 | -3.99
O=C(NCC1CC1)c1cc(Br)cnc1N1CCCCC1 | -1.59
CCOC(=O)CNC(=O)c1cccnc1Sc1cc(OC)ccc1OC | 11.1
COc1ccc(OC)c(Sc2ncccc2C(=O)NCCSC)c1 | -8.11
CCSc1ncccc1C(=O)NCc1ccc(N(C)C)cc1 | -7.85
N#Cc1cnc(N2CCC3(CC2)OCCO3)nc1N | -5.59
O=C(N[C@H]1CCCC[C@@H]1O)c1ccc(-c2nc3ccccc3[nH]2)cc1 | -1.28
O=C(N[C@H]1CCCC[C@@H]1O)c1ccc2nc(-c3ccccc3)[nH]c2c1 | 9.22
O=C(NC[C@H]1CCCC[C@H]1O)c1cccc2[nH]c(-c3cccs3)nc12 | -5.24
O=C([C@@H]1CCCN1c1nccc(Nc2ccccc2)n1)N1CCCCC1 | 20.9
CC(=O)N1N=C(c2ccccc2)OC1C(=O)NCCc1ccc(O)cc1 (centres undefined) | -1.25
CCOCCNC(=O)[C@@H]1CCCN1c1nccc(Nc2ccccc2)n1 | -1.64
CC1(C)CC(NC(=O)c2cnn(-c3ccccc3F)c2N)CC(C)(C)N1 | 19.7
CN1CCC(N(C)C(=O)c2cnn(-c3ccccc3Br)c2N)CC1 | 0.0189

SMILES | cytotoxicity at 70.5 h [%]
CC(=O)N1N=C(c2ccco2)OC1C(=O)NCCc1ccc(O)cc1 (centres undefined) | -2.51
CC(=O)N1N=C(c2ccncc2)OC1C(=O)N(C)CCc1ccccc1 (centres undefined) | 4.98
CC(=O)N1N=C(c2ccco2)OC1C(=O)N(C)CCc1ccccc1 (centres undefined) | 20.4
CCCC(Nc1nc(COCC)nc2c1CCNCC2)c1nccn1C (centres undefined) | 2.1
COc1ccc(-n2nc(C3CC3)nc2CCn2cnnn2)cc1 | 26.8
O=C(CCOc1ccccc1)N1CCCC(c2ncc[nH]2)C1 (centres undefined) | -20.2
Cn1ccnc1CN(CCO)C(=O)c1cnc2ccccc2c1 | 0.182
CC[C@@]1(O)CCN(C(=O)c2ccc(OC(F)F)cc2)C[C@H]1O | -4.22
CC(=O)NCC1CCC2(CCN(c3nccc(C4CCCC4)n3)CC2)O1 (centres undefined) | -7.84
CCN(Cc1cnn(CC)c1)C(=O)Cn1c(=O)ccc2ccccc21 | -5.92
O=C1CC2(CCN(C(=O)c3ccc4c(c3)CCCO4)C2)C(=O)N1 (centres undefined) | 2.37
Cc1cc(C)c2nc(CN3CCC(N4CCOCC4)CC3)cc(O)c2c1 | -0.693
NC(=O)c1csc(N2C[C@@H](CN3CCOCC3)[C@@H](CO)C2)n1 | -2.9
O=C(CCNc1ncc2c(n1)CCN2c1ccccc1)N1CCCC1 | -9.59
O=C(NCc1nc(C2CCCCC2)no1)C1CC(=O)N(C2CCCC2)C1 (centres undefined) | -0.128
COc1ccccc1Oc1ncccc1CNC(=O)C1(C)CCCNC1 (centres undefined) | -1.4
CCc1ccccc1OC1CN(CC2CCOC2)C1 (centres undefined) | 29.4
CCOCc1nc2c(c(NCc3cc(C)on3)n1)CCN(C(C)=O)CC2 | -7.96
CSc1cccc(CNC(=O)[C@H]2CNC[C@H](C(=O)N3CCOCC3)C2)c1 | -2.2
COCCOC(=O)N1C[C@H]2CC[C@@H]1CN(C1Cc3ccccc3C1)C2 | -3.17
Fc1cccc(C2(CNC3CCCNC3)CCOCC2)c1 (centres undefined) | -1.46
CS(=O)(=O)N1CCCCC1CCc1ccc(O)cc1 (centres undefined) | 16.6
C[C@@H]1CN(CC(C)(C)N2CCOCC2)C[C@@]1(O)C1CC1 | -6.35

SMILES | cytotoxicity at 70.5 h [%]
CC(C1CCN(Cc2ccc(OC(F)F)cc2)CC1)N1CCOCC1 (centres undefined) | -17.4
COc1ccc(NC(=O)N2CCC3(CC2)NC(=O)CC3C(=O)O)c(C)c1 (centres undefined) | -1.09
Cc1ccsc1-c1nccn1CCN1CCCCC1CO (centres undefined) | -4.24
COc1cccc2ccc(N3CCC(O)(C(=O)O)CC3)nc12 | -16.9
Cc1nc(-c2ccncc2)ncc1C(C)NC(=O)CN1CCCCC1 (centres undefined) | -7.41
CCCNC(=O)N1CCc2ccc(S(=O)(=O)N3CCOCC3)cc2C1 | -16.2
Cn1ncc(CN2CCc3onc(-c4cccc(F)c4)c3C2)c1C1CC1 | -11.6
CCCn1cnnc1CNC(=O)C1COc2c(cccc2OC)C1 (centres undefined) | -11.4
COc1cc(-c2nc3c([nH]2)CCCNC3=O)cc(OC)c1OC | -1.49
Cc1nc(NC(=O)NC2CC(=O)N(C)C2)nn1C (centres undefined) | 7.5
C[C@@H]1CN(C(=O)CCCN2CCCC2)CC[C@@]1(O)C1CCOCC1 | -3.8
CC(C)CN(Cc1ccc(O)c(C(=O)O)c1)Cc1cnn(C)c1 | -1.34
CN(Cc1nncn1-c1cccc(C(F)(F)F)c1)S(C)(=O)=O | 7.25
CC(=O)NCCCC(=O)N1CCC(Sc2cccc(C)c2)CC1 | -12.1
O=S1(=O)C[C@@H]2[C@H](C1)N(Cc1ccc3ccccc3c1)CCN2CC1CC1 | 2.29
Cc1nc(NCCC23CCCN2CCC3)cc(C2CCCNC2)n1 (centres undefined) | -3.41
CC(=O)N(C)c1nc(CN2CCCC2Cn2cncn2)cs1 (centres undefined) | -2.86
CCc1nccn1C1CCCN(C(=O)c2ccc3nnc(C)n3c2)C1 (centres undefined) | -2.12
CN1CCN(C2CCN(Cc3nc(-c4ccoc4)no3)CC2)C1=O | -6.16
Cc1ccc(CC(=O)Nc2cc(C(C)C)n[nH]2)cn1 | 24.6
COc1ccc(-c2noc(CN3CC(n4cc(C)cn4)C3)n2)cc1 | -11.2
O=C1NCCN1C1CCN(Cc2nc(-c3ccsc3)no2)CC1 | 32.4
CC(C)C(Sc1nccn1C1CC1)C(=O)NCc1cccnc1 (centres undefined) | 16

SMILES | cytotoxicity at 70.5 h [%]
Cc1ccc(C(C)NC(=O)CNCCn2cccn2)cc1C (centres undefined) | -10.7
CCCc1nc(CN2CCCCC2Cn2cncn2)cs1 (centres undefined) | -7.91
CC(C)C(Sc1nncn1C1CC1)C(=O)NCc1cccnc1 (centres undefined) | -2.46
CCc1nccn1C1CCCN(C(=O)c2ccc3c(c2)OCCO3)C1 (centres undefined) | -9.17
CCc1nccn1C1CCCN(C(=O)c2ccc(OC)c(OC)c2)C1 (centres undefined) | 9.92
Cc1cc(C(=O)N2CCCC(C)C2)ccc1NCc1nc(C2CC2)no1 (centres undefined) | -13.1
Cc1nc(C)n(CC2CCCN2Cc2ncc(-c3ccccc3)o2)n1 (centres undefined) | -2.3
CC(C)c1nc(CN(C)C2CCCN(c3cccnn3)C2)no1 (centres undefined) | -5.62
CCOCCN1CCN(Cc2coc(-c3cccc(F)c3)n2)CC1 | -1.54
Cc1nn(C)c(N(C)C)c1CNCC(O)c1ccccc1F (centres undefined) | -15.4
O=C(NCC1CCOC1)c1csc(-c2ccccc2)n1 (centres undefined) | -15.4
Cc1cc(CNC(=O)CCc2c(C)nc3cc(O)nn3c2C)no1 | -6.68
Cc1nc2cc(O)nn2c(C)c1CCC(=O)NCCc1nccn1C | -10.9
CC(C)Cc1cc(NC(=O)c2ccccc2F)n(C)n1 | -9.5
CCOc1ccc(Cl)c(C(=O)N2CCCN(CC(N)=O)CC2)n1 | -12
Cc1cnn(C2CCCN(C(=O)c3ccc4c(c3)CCC4)C2)c1 (centres undefined) | -6.05
Cc1cnn(C2CCCN(C(=O)c3ccc(O)nc3)C2)c1 (centres undefined) | -12.4
COC(=O)c1cccn1C1CCN(C(=O)c2ccc(C)[nH]c2=O)CC1 | -5.32
COC(=O)c1cccn1C1CCN(C(=O)c2cc(F)ccc2C)CC1 | -16.9
CCOc1ccc(Cl)c(C(=O)N2CCN(CC(O)CC)CC2)n1 (centres undefined) | -14
O=C(c1ccc2[nH]c(=O)[nH]c2c1)N1CCC(Nc2cccnn2)CC1 | -9.22
Cn1nnc2cc(C(=O)N3CCC(Nc4cccnn4)CC3)ccc21 | -15.7
O=C(c1ccc(-n2cnnc2)cc1)N1CCC(Nc2cccnn2)CC1 | -15.6

SMILES | cytotoxicity at 70.5 h [%]
CNC(=O)c1ccc(C(=O)N2CCCC(n3nc(C)cc3C)C2)cn1 (centres undefined) | -12.8
Cc1oc(C(=O)O)cc1S(=O)(=O)Nc1cccc(Cl)c1F | -7.29
CCOc1ccc(Cl)c(C(=O)N2CCCSCC2)n1 | -10.6
COCCN1CCC(NCc2ccc(F)cc2F)C1 (centres undefined) | 5.5
COCCN1CCC(NCc2cccc(C)c2)C1 (centres undefined) | -12.6
COc1c(C)cnc(CN2CCC(N(C)C(=O)C3CC3)CC2)c1C | -10.5
CCc1noc(CN2CCN(Cc3cccs3)CC2)n1 | -10
Cc1nn(C)c(C)c1C1COCCN1C(=O)c1cc(F)ccc1F (centres undefined) | -16.4
Cc1cc(C(=O)N2CCCC2)ccc1NCC(=O)N1CCOCC1 | -6.05
COc1c(C)cnc(CN2CCC(N(C)S(C)(=O)=O)CC2)c1C | -16
CCNC(=O)N(C)C1CCN(Cc2ncc(C)c(OC)c2C)CC1 | -8
CC(C)(C)N1CCN(C(=O)Nc2cc(C(F)(F)F)c[nH]c2=O)CC1 | 10.7
c1cc(CCN2CCN(c3ccc4nncn4n3)CC2)ccn1 | -11.9
Cc1ccc(NC2CCN(C(=O)CCc3ccsc3)CC2)nn1 | -7.65
CC(C)NC(=O)N(C)C(c1cccc(F)c1)c1ccccn1 (centres undefined) | -7.96
CS(=O)(=O)CCC(=O)Nc1cc(F)ccc1OCC1CCCO1 (centres undefined) | 12.1
O=C(O)c1c[nH]c2cc(NS(=O)(=O)c3ccc(Cl)cc3F)ccc12 | -5.42
NC(=O)c1cc(C2CCCN(C(=O)CCc3cccs3)C2)n[nH]1 (centres undefined) | 10.7
Cc1ccc(NC(=O)N2CCCC2)c(OCC2CCCO2)c1 (centres undefined) | -16.8
Clc1ccccc1CCN1CCN(c2ccc3nncn3n2)CC1 | -16.3
CCOCC(O)CN1CCN(C(=O)c2cc(C)ccc2F)CC1 (centres undefined) | -3.47
Nc1nc(Nc2ccccc2)cc(N2CCNCC2)n1 | -3.76
